The subject of assay [1] is Saccharomyces cerevisiae. In words: Inhibition of 25 nM rapamycin-mediated cytostatic effect in yeast BY4742 at sub-lethal concentration after 48 to 96 hrs. It counts as functional, organism-based.
Assay [2] deals with Saccharomyces cerevisiae. In words: Inhibition of rapamycin-mediated cytostatic effect in yeast RM11-1a after 48 to 96 hrs. It is filed as functional.
Another assay relates to Saccharomyces bayanus. In words: Inhibition of rapamycin-mediated cytostatic effect in Saccharomyces bayanus after 48 to 96 hrs. It counts as functional.
A further assay concerns Saccharomyces mikatae. The assay can be described thus: Inhibition of rapamycin-mediated cytostatic effect in Saccharomyces mikatae after 48 to 96 hrs. It counts as functional.
Another assay has as its system Saccharomyces paradoxus. In words: Inhibition of rapamycin-mediated cytostatic effect in Saccharomyces paradoxus after 48 to 96 hrs. It is filed as functional.
In assay [3] the test system is Saccharomyces cerevisiae. The assay can be described thus: Inhibition of 50 nM rapamycin-mediated cytostatic effect in yeast BY4742 after 48 to 96 hrs. It counts as functional, organism-based.

Activity calls are given as the source filed them. No cut-off for these calls is given here.

What is called EC50 is the concentration that produces a half-maximal response.

For the molecule `COc1ccc(C[C@H]2NC[C@H](O)[C@H]2OC(C)=O)cc1`, the inhibition entry in the assay on Saccharomyces cerevisiae [1] was “inactive”.

`S=C(S)OC1CC2CC1C1CCCC21` (stereo unspecified): the inhibition result in the assay with Saccharomyces cerevisiae [2], in the assay with Saccharomyces bayanus, in the assay with Saccharomyces mikatae and in the assay on Saccharomyces paradoxus was “Active” each time. In the assay on Saccharomyces cerevisiae [3], this molecule had an EC50 of 0.412 µM.

For `O=C1C(Nc2ccccc2)=CC(=O)c2ncccc21`, the inhibition entry in the assay with Saccharomyces cerevisiae [2], in the assay with Saccharomyces bayanus, with Saccharomyces mikatae and in the assay on Saccharomyces paradoxus was “Active” throughout. Also, the EC50 in the assay with Saccharomyces cerevisiae [3] amounted to 10.4 µM.

Source of the values: ChEMBL document CHEMBL1240327, “Small molecules enhance autophagy and reduce toxicity in Huntington's disease models” (Nat Chem Biol, 2007).
